In paper PMC11768251, “Τhiazolidine-4-One Derivatives with Variable Modes of Inhibitory Action Against DPP4, a Drug Target with Multiple Activities and Established Role in Diabetes Mellitus Type II” (Pharmaceuticals, 2025):
Where two headings read alike, the source gives them in different places.

What was measured:
DPP4 [1] = target: T1, DPP4 (Homo sapiens, UniProt P27487); test: In vitro DPP4 inhibition assay, fluorometric, H-Gly-Pro-amidomethyl coumarin substrate; details: for logIC50: Figure 4, competitive inhibitors
Experimental: The compounds were screened for their inhibitory activity against DPP4 by a fluorometric assay, measuring the hydrolysis rate of the substrate Gly-Pro-amidomethyl coumarin in the absence and presence of the inhibitor. […] DPP-4 activity was assessed by measuring the hydrolysis rate of the substrate H-Gly-Pro-amidomethyl coumarin. The resulting fluorescent product, 7-Amino-4-Methyl Coumarin (AMC), was monitored with a Tecan Pro2000 microplate fluorescence reader (Tecan Ltd, Zurich, Switzerland) at an excitation wavelength of 360 nm and an emission wavelength of 460 nm, with measurements taken every 60 s for 30 min. The inhibitors, dissolved in DMSO, were added to the reaction buffer (20 mM Tris-HCl, pH 8, 100 mM NaCl, and 1 mM EDTA) at 10 µL per reaction, along with 0.17 µg/mL of enzyme, and incubated for 10 min. After incubation, 50 µL of the appropriate substrate concentration was added, bringing the total reaction volume to 100 µL. The inhibition (%) was calculated as ((Fc − Fi)/Fc) × 100, where Fc is the fluorescence value of the control (no inhibitor-total activity) and Fi is the fluorescence value in the presence of the inhibitor. […] The volume of 10 μL DMSO was added to the total activity control instead of the inhibitor. A blank containing all other components except for the enzyme was abstracted in all cases. Each determination was performed in triplicate.

DPP4 [2] = target: T1, DPP4; test: Inhibition kinetic analysis of DPP4 (Lineweaver–Burk plot); format: biochemical; details: for Κm of the enzyme in the presence of the compound: without compound 49.7 ± 3.8; for Inhibition Mode: from Lineweaver–Burk plot, substrate 17–80 μM
Experimental: To further investigate the mode of inhibition, Lineweaver–Burk curves were prepared for some of the compounds.
The concentration range of the substrate (H-Gly-Pro-AMC) was 17–80 μM, and the final concentration of DPP-4 was 0.17 µg/mL. The maximum enzymatic reaction rate (Vmax) and Michaelis constant (Km) were calculated according to the Lineweaver–Burk plot.

[3] = cited from earlier work
[4] = read-out: % Inhibition, 50 μΜ Substrate
[5] = read-out: % Inhibition, 100 μΜ Substrate
[6] = compound concentration 15.000 μΜ
[7] = compound concentration 0.080 μΜ
[8] = compound concentration 0.100 μΜ

T1 sequence (P27487 whole entry): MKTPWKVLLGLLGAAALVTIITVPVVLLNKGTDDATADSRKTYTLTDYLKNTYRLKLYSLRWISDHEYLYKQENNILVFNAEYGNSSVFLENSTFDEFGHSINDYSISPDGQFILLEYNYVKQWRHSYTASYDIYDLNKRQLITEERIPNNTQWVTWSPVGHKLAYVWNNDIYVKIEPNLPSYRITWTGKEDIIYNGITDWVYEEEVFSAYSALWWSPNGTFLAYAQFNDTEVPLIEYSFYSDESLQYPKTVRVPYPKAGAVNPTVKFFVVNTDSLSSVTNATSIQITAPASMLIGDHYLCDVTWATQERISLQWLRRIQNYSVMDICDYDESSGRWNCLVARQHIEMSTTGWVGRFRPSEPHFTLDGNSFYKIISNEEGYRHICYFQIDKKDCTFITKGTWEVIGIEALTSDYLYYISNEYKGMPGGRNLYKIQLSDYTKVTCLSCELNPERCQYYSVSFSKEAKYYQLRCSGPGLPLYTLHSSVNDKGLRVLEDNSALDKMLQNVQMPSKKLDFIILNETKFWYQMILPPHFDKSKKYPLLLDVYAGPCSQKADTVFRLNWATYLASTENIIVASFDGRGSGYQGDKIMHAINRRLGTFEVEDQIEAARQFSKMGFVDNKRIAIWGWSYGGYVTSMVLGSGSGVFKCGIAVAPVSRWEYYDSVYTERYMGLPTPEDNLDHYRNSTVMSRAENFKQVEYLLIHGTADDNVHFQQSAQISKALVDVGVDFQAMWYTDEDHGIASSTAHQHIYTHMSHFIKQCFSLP

IC50 (DPP4 [1]; IC50, DPP4, triplicate) [nM]	Inhibition Mode (DPP4 [2])	inhibition at 0.08 µM (DPP4 [1]; [4]) [%]	inhibition at 0.08 µM (DPP4 [1]; [5]) [%]	SMILES	other results
8600 ± 200	competitive	–	–	O=C1CSC(c2ccc([N+](=O)[O-])cc2)N1c1nc2ccc(Cl)cc2s1 (stereo not shown) [c2]	Κm of the enzyme in the presence of the compound (DPP4 [2]; [6]): 87.6 ± 4.8; inhibition at 10 µM (DPP4 [1]; [4]): 66%; inhibition at 10 µM (DPP4 [1]; [5]): 14.1%
31 ± 3.8	–	79.8	12	O=C1CSC(c2c(Cl)cccc2Cl)N1c1nc2ccc(OC(F)(F)F)cc2s1 (stereo not shown) [h1]	logIC50 (DPP4 [1]): 1.491
12 ± 0.5	competitive	62	20	O=C1CSC(c2c(F)cccc2Cl)N1c1nc2ccc(OC(F)(F)F)cc2s1 (stereo not shown) [h3, 3-(6-OCF3-benzo[d]thiazol-2-yl)-2-(2-F,6-Cl-phenyl) thiazolidin-4-one]	Κm of the enzyme in the presence of the compound (DPP4 [2]; compound concentration 0.010 μΜ): 103.1 ± 9.3; logIC50 (DPP4 [1]): 1.079
> 100	–	46.8	0	O=C1CSC(c2ccc(F)cc2)N1c1nc2ccc(OC(F)(F)F)cc2s1 (stereo not shown) [h6]	–
90.6 ± 8.8	mixed	45	26	O=C1CSC(c2ccc(Cl)cc2)N1c1nc2ccc(OC(F)(F)F)cc2s1 (stereo not shown) [h8]	Κm of the enzyme in the presence of the compound (DPP4 [2]; [7]): 167.9 ± 15.8
137 ± 4.6	non-competitive	36.8	37.2	Cc1cc(C23CC4CC(CC(C4)C2)C3)cc2sc(N3C(=O)CSC3c3c(Cl)cccc3Cl)nc12 (stereo not shown) [n1, 3-(4-CH3,6-Ad-benzo[d]thiazol-2-yl)-2-(2,6-di-Cl-phenyl) thiazolidin-4-one]	Κm of the enzyme in the presence of the compound (DPP4 [2]; [8]): 49.8 ± 0.6

The remaining lines, values behind:

SMILES	IC50 (DPP4 [1]; IC50, DPP4, triplicate) [nM]	Inhibition Mode (DPP4 [2])	inhibition at 0.08 µM (DPP4 [1]; [4]) [%]	inhibition at 0.08 µM (DPP4 [1]; [5]) [%]	other results
O=C1CSC(c2ccc(F)cc2)N1c1nc2ccc(Cl)cc2s1 (stereo not shown) [c1]	> 20000	–	–	–	inhibition at 10 µM (DPP4 [1]; [4]): 33.5%; inhibition at 10 µM (DPP4 [1]; [5]): 11.4%
O=C1CSC(c2ccc(Cl)cc2)N1c1nc2ccc(Cl)cc2s1 (stereo not shown) [c3]	12500 ± 200	–	–	–	logIC50 (DPP4 [1]): 4.097; inhibition at 10 µM (DPP4 [1]; [4]): 41.6%; inhibition at 10 µM (DPP4 [1]; [5]): 28%
COc1ccc(C2SCC(=O)N2c2nc3ccc(Cl)cc3s2)cc1 (stereo not shown) [c4]	11500 ± 1500	uncompetitive	–	–	Κm of the enzyme in the presence of the compound (DPP4 [2]; [6]): 19.4 ± 9.3; inhibition at 10 µM (DPP4 [1]; [4]): 48.5%; inhibition at 10 µM (DPP4 [1]; [5]): 68.5%
O=C1CSC(c2cccc(Cl)c2Cl)N1c1nc2ccc(OC(F)(F)F)cc2s1 (stereo not shown) [h4]	27 ± 0.5	competitive	84.4	12.1	Κm of the enzyme in the presence of the compound (DPP4 [2]; [7]): 98 ± 26.9; logIC50 (DPP4 [1]): 1.431
O=C1CSC(c2ccc(Cl)cc2Cl)N1c1nc2ccc(OC(F)(F)F)cc2s1 (stereo not shown) [h5]	23.7 ± 2	–	45	14	–
O=C1CSC(c2ccc([N+](=O)[O-])cc2)N1c1nc2ccc(OC(F)(F)F)cc2s1 (stereo not shown) [h7]	25.5 ± 3	–	67	55	–
COc1ccc(C2SCC(=O)N2c2nc3ccc(OC(F)(F)F)cc3s2)cc1 (stereo not shown) [h9]	72.3 ± 5.2	mixed	52.3	37.6	–
O=C1CSC(c2ccc(O)cc2)N1c1nc2ccc(OC(F)(F)F)cc2s1 (stereo not shown) [h10]	> 100	–	38	0	–
CC#CCn1c(N2CCC[C@@H](N)C2)nc2c1c(=O)n(Cc1nc(C)c3ccccc3n1)c(=O)n2C [linagliptin]	–	–	–	–	excreted unmodified in the feces [3]: 87%
O=C1CSC(c2c(F)cccc2Cl)N1c1nc2ccc(C34CC5CC(CC(C5)C3)C4)cc2s1 (stereo not shown) [m2, 3-(6-Ad-benzo[d]thiazol-2-yl)-2-(2-F,6-Cl-phenyl) thiazolidin-4-one]	71.5 ± 8.3	uncompetitive	52	69.7	Κm of the enzyme in the presence of the compound (DPP4 [2]; compound concentration 0.060 μΜ): 30.6 ± 2.7
Cc1cc(C23CC4CC(CC(C4)C2)C3)cc2sc(N3C(=O)CSC3c3c(F)cccc3F)nc12 (stereo not shown) [n2]	48.3 ± 5.2	competitive	66.3	0	Κm of the enzyme in the presence of the compound (DPP4 [2]; [8]): 117.2 ± 1.5; logIC50 (DPP4 [1]): 1.681; IC50 (DPP4 [1]; IC50 (as printed in Figure 4), printed in the picture of Figure 4 without unit): 48 nM
N[C@@H](CC(=O)N1CCn2c(nnc2C(F)(F)F)C1)Cc1cc(F)c(F)cc1F [sitagliptin]	–	–	–	–	ends unmodified in the urine [3]: 79%
